Laboratory results: patent US20220135591A1, “HETEROCYCLIC COMPOUNDS AS INHIBITORS OF MONOACYLGLYCEROL LIPASE (MAGL)” (Hoffmann-La Roche Inc., priority 2019, published 2022)
pIC50: −log10 of the molar value.

The compounds below were run against T1, MAGL (Homo sapiens, UniProt Q99685) (assay: 2-AG assay: MAGL inhibitory activity by hydrolysis of 2-arachidonoylglycerol to arachidonic acid, mass spectrometry). Conditions: 2-AG assay (values marked [b]).
T1 sequence (Q99685 1-303): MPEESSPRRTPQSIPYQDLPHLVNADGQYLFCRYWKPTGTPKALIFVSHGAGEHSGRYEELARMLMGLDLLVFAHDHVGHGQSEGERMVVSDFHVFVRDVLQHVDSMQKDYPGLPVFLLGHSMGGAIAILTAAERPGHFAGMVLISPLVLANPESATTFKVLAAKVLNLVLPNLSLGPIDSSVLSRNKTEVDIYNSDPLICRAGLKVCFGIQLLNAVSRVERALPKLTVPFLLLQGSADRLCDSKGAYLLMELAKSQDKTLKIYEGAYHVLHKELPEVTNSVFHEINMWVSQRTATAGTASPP
Format: biochemical
Method: Alternatively, compounds were profiled for MAGL inhibitory activity by determining the enzymatic activity by following the hydrolysis of the natural substrate 2-arachidonoylglycerol (2-AG) resulting in arachidonic acid, which can be followed by mass spectrometry. This assay is hereinafter abbreviated “2-AG assay”.
The 2-AG assay was carried out in 384 well assay plates (PP, Greiner Cat #784201) in a total volume of 20 μL. Compound dilutions were made in 100% DMSO (VWR Chemicals 23500.297) in a polypropylene plate in 3-fold dilution steps to give a final concentration range in the assay from 12.5 μM to […]. 0.25 μL compound dilutions (100% DMSO) were added to 9 μL MAGL in assay buffer (50 mM TRIS (GIBCO, 15567-027), 1 mM EDTA (Fluka, 03690-100 mL), 0.01% (v/v) Tween. After shaking, the plate was incubated for 15 min at RT. To start the reaction, 10 μL 2-arachidonoylglycerol in assay buffer was added. The final concentrations in the assay was […] and 8 μM 2-arachidonoylglyerol. After shaking and 30 min incubation at RT, the reaction was quenched by the addition of 40 μL of ACN containing 4 μM of d8-arachidonic acid. The amount of arachidonic acid was traced by an online SPE system (Agilent Rapidfire) coupled to a triple quadrupole mass spectrometer (Agilent 6460). A C18 SPE cartridge (G9205A) was used in an ACN/water liquid setup. The mass spectrometer was operated in negative electrospray mode following the mass transitions 303.1→259.1 for arachidonic acid and 311.1→267.0 for d8-arachidonic acid. The activity of the compounds was calculated based on the ratio of intensities [arachidonic acid/d8-arachidonic acid].

pIC50	Compound
6.33	Cc1ccc2oc(N3CCN(C(=O)c4ccc(-c5cn(CC6(F)CC6)nn5)cc4)CC3)nc2n1 [Example 126, (4-(1-((1-fluorocyclopropyl)methyl)-1H-1,2,3-triazol-4-yl)phenyl)(4-(5-methyloxazolo[4,5-b]pyridin-2-yl)piperazin-1-yl)methanone]
6.64	Cc1ccc2oc(N3CCN(C(=O)c4ccc(-c5nc(C(C)(C)C)nn5C)cc4)CC3)nc2n1 [Example 127, [4-(5-tert-butyl-2-methyl-1,2,4-triazol-3-yl)phenyl]-[4-(5-methyloxazolo[4,5-b]pyridin-2-yl)piperazin-1-yl]methanone]
7.28	Cc1cc(C(=O)N2CCN(c3nc4nc(Cl)ccc4o3)CC2)cnc1-n1cnc(C(C)(C)C)n1 [Example 129, [6-(3-tert-butyl-1,2,4-triazol-1-yl)-5-methylpyridin-3-yl]-[4-(5-chloro-[1,3]oxazolo[4,5-b]pyridin-2-yl)piperazin-1-yl]methanone]
8.10	Cc1ccc2oc(N3CCN(C(=O)c4cnc(-n5cc(C(C)(C)C)cn5)c(C)c4)CC3)nc2n1 [Example 130, [6-(4-tert-butylpyrazol-1-yl)-5-methylpyridin-3-yl]-[4-(5-methyl-[1,3]oxazolo[4,5-b]pyridin-2-yl)piperazin-1-yl]methanone]
7.31	CC(C)(F)Cn1cc(-c2ccc(C(=O)N3CCN(c4nc5nc(Cl)ccc5o4)CC3)cc2)nn1 [Example 132, (4-(5-chlorooxazolo[4,5-b]pyridin-2-yl)piperazin-1-yl)(4-(1-(2-fluoro-2-methylpropyl)-1H-1,2,3-triazol-4-yl)phenyl)methanone]
6.94	Cc1ccc2oc(N3CCN(C(=O)c4ccc(-c5cn(C(C)(C)CF)nn5)cc4)CC3)nc2n1 [Example 135, (4-(1-(1-fluoro-2-methylpropan-2-yl)-1H-1,2,3-triazol-4-yl)phenyl)(4-(5-methyloxazolo[4,5-b]pyridin-2-yl)piperazin-1-yl)methanone]
7.47	CC(C)(C#N)Cn1ncc(-c2ccc(C(=O)N3CCN(c4nc5nc(Cl)ccc5o4)CC3)cc2)n1 [Example 136, 3-[4-[4-[4-(5-chlorooxazolo[4,5-b]pyridin-2-yl)piperazine-1-carbonyl]phenyl]triazol-2-yl]-2,2-dimethyl-propanenitrile]
7.47	Cc1nc(C(=O)N2CCN(c3nc4nc(Cl)ccc4o3)CC2)cnc1OCC1(C(F)(F)F)CC1 [Example 137, [4-(5-chlorooxazolo[4,5-b]pyridin-2-yl)piperazin-1-yl]-[6-methyl-5-[[1-(trifluoromethyl)cyclopropyl]methoxy]pyrazin-2-yl]methanone]
6.74	COc1cc(C(=O)N2CCN(c3nc4nc(Cl)ccc4o3)CC2)cnc1OCC1(C(F)(F)F)CC1 [Example 138, [4-(5-chlorooxazolo[4,5-b]pyridin-2-yl)piperazin-1-yl]-[5-methoxy-6-[[1-(trifluoromethyl)cyclopropyl]methoxy]-3-pyridyl]methanone]
6.41	Cc1ccc2oc(N3CCN(C(=O)c4ccc(OCC5(C(F)(F)F)CC5)c(C)n4)CC3)nc2n1 [Example 139, [4-(5-methyloxazolo[4,5-b]pyridin-2-yl)piperazin-1-yl]-[6-methyl-5-[[1-(trifluoromethyl)cyclopropyl]methoxy]-2-pyridyl]methanone]
6.49	Cc1nc(C(=O)N2CCN(c3nc4nc(Cl)ccc4o3)CC2)ccc1OCC1(C(F)(F)F)CC1 [Example 140, [4-(5-chlorooxazolo[4,5-b]pyridin-2-yl)piperazin-1-yl]-[6-methyl-5-[[1-(trifluoromethyl)cyclopropyl]methoxy]-2-pyridyl]methanone]
7.70	CC1(COc2ncc(C(=O)N3CCN(c4nc5nc(Cl)ccc5o4)CC3)cc2Cl)CC1 [Example 149, (5-chloro-6-((1-methylcyclopropyl)methoxy)pyridin-3-yl)(4-(5-chlorooxazolo[4,5-b]pyridin-2-yl)piperazin-1-yl)methanone]
7.26	Cc1ccc2oc(N3CCN(C(=O)c4cnc(OCC5(C(F)(F)F)CC5)c(OCC5(C(F)(F)F)CC5)c4)CC3)nc2n1 [Example 151, (5,6-bis((1-(trifluoromethyl)cyclopropyl)methoxy)pyridin-3-yl)(4-(5-methyloxazolo[4,5-b]pyridin-2-yl)piperazin-1-yl)methanone]
8.10	O=C(c1cnc(OCC2(C(F)(F)F)CC2)c(C(F)(F)F)c1)N1CCN(c2nc3nc(Cl)ccc3o2)CC1 [Example 154, (4-(5-chlorooxazolo[4,5-b]pyridin-2-yl)piperazin-1-yl)(5-(trifluoromethyl)-6-((1-(trifluoromethyl)cyclopropyl)methoxy)pyridin-3-yl)methanone]
6.50	Cc1cc(C(=O)N2CCN(c3nc4nc(Cl)ccc4o3)CC2)cnc1OCC1(C)COC1 [Example 157, (4-(5-chlorooxazolo[4,5-b]pyridin-2-yl)piperazin-1-yl)(5-methyl-6-((3-methyloxetan-3-yl)methoxy)pyridin-3-yl)methanone]

Continued, compound first:

Compound	pIC50
Cc1ccc2oc(N3CCN(C(=O)c4cnc(-n5cnc(C(C)(C)C)n5)c(C)c4)CC3)nc2n1 [Example 128, [6-(3-tert-butyl-1,2,4-triazol-1-yl)-5-methylpyridin-3-yl]-[4-(5-methyl-[1,3]oxazolo[4,5-b]pyridin-2-yl)piperazin-1-yl]methanone]	6.97
CC(C)(C#N)Cn1cc(-c2ccc(C(=O)N3CCN(c4nc5nc(Cl)ccc5o4)CC3)cc2)nn1 [Example 131, 3-[4-[4-[4-(5-chlorooxazolo[4,5-b]pyridin-2-yl)piperazine-1-carbonyl]phenyl]triazol-1-yl]-2,2-dimethyl-propanenitrile]	7.46
Cc1ccc2oc(N3CCN(C(=O)c4ccc(-c5cn(CC(C)(C)F)nn5)cc4)CC3)nc2n1 [Example 133, (4-(1-(2-fluoro-2-methylpropyl)-1H-1,2,3-triazol-4-yl)phenyl)(4-(5-methyloxazolo[4,5-b]pyridin-2-yl)piperazin-1-yl)methanone]	7.03
CC(C)(CF)n1cc(-c2ccc(C(=O)N3CCN(c4nc5nc(Cl)ccc5o4)CC3)cc2)nn1 [Example 134, (4-(5-chlorooxazolo[4,5-b]pyridin-2-yl)piperazin-1-yl)(4-(1-(1-fluoro-2-methylpropan-2-yl)-1H-1,2,3-triazol-4-yl)phenyl)methanone]	7.32
Cc1ccc2oc(N3CCN(C(=O)c4cnc(OCC5(C)CC5)c(F)c4)CC3)nc2n1 [Example 148, (5-fluoro-6-((1-methylcyclopropyl)methoxy)pyridin-3-yl)(4-(5-methyloxazolo[4,5-b]pyridin-2-yl)piperazin-1-yl)methanone]	6.65
Cc1ccc2oc(N3CCN(C(=O)c4cnc(OCC5(C(F)(F)F)CC5)c(F)c4)CC3)nc2n1 [Example 150, (5-fluoro-6-((1-(trifluoromethyl)cyclopropyl)methoxy)pyridin-3-yl)(4-(5-methyloxazolo[4,5-b]pyridin-2-yl)piperazin-1-yl)methanone]	7.34
O=C(c1cnc(OCC2(C(F)(F)F)CC2)c(Cl)c1)N1CCN(c2nc3nc(Cl)ccc3o2)CC1 [Example 152, (5-chloro-6-((1-(trifluoromethyl)cyclopropyl)methoxy)pyridin-3-yl)(4-(5-chlorooxazolo[4,5-b]pyridin-2-yl)piperazin-1-yl)methanone]	7.82
Cc1cc(C(=O)N2CCN(c3nc4nc(Cl)ccc4o3)CC2)cnc1OCC1(C(F)(F)F)CC1 [Example 153, (4-(5-chlorooxazolo[4,5-b]pyridin-2-yl)piperazin-1-yl)(5-methyl-6-((1-(trifluoromethyl)cyclopropyl)methoxy)pyridin-3-yl)methanone]	8.00
Cc1cc(C(=O)N2CCN(c3nc4nc(Cl)ccc4o3)CC2)cnc1OCC1CC1 [Example 155, (4-(5-chlorooxazolo[4,5-b]pyridin-2-yl)piperazin-1-yl)(6-(cyclopropylmethoxy)-5-methylpyridin-3-yl)methanone]	7.05
Cc1cc(C(=O)N2CCN(c3nc4nc(Cl)ccc4o3)CC2)cnc1OCC1(C)CC1 [Example 156, (4-(5-chlorooxazolo[4,5-b]pyridin-2-yl)piperazin-1-yl)(5-methyl-6-((1-methylcyclopropyl)methoxy)pyridin-3-yl)methanone]	7.68
Cc1cc(C(=O)N2CCN(c3nc4nc(Cl)ccc4o3)CC2)cnc1OCC1(C)CC1(F)F (centres unmarked) [Example 158, (4-(5-chlorooxazolo[4,5-b]pyridin-2-yl)piperazin-1-yl)(6-((2,2-difluoro-1-methylcyclopropyl)methoxy)-5-methylpyridin-3-yl)methanone]	7.96
